Laboratory results published in paper PMC3205048, “Differential Modulation of Beta-Adrenergic Receptor Signaling by Trace Amine-Associated Receptor 1 Agonists” (PLoS ONE, 2011).
Like-named read-outs stand apart in the source and are kept apart here.

Key:
Type in all cases: cell-based
hADRB2 = biological target: T1, hADRB2 (Homo sapiens, UniProt P07550); test: cAMP accumulation (AlphaScreen) in HEK293 cells transiently transfected with hADRB2, ligand alone or co-stimulation with ISOP; conditions: for agonistic effect of the ligand alone: ligand alone 6.7 nM to 6700 nM, 45 min; for effect on ISOP stimulation: pre-incubation 6.7 nM to 6700 nM 15 min, then ISOP 1 nM to 10000 nM 30 min
T1 construct: HA tag (N); expressed in transfected cells; host or cells: HEK293 (ATCC-LGC), transient transfection, vector pcDps
Method: (§1) We functionally tested the effects of particular trace amines at the human ADRB1 and ADRB2 (figure 3). […] Controls were stimulated with each trace amine and ISOP alone, respectively.
(§2) Figure 3 Characterization of hADRB1 and hADRB2 after trace amine challenge. HEK293 cells were transiently transfected with hADRB1 and hADRB2, respectively. […] As controls hADRB1 and hADRB2 were incubated with each substance alone with the same concentration for 45 minutes. Three to four independent experiments measured in duplex or tripletts mean ± SEM are depicted here. […] Maximal values were statistically analyzed using paired one-tail t-test compared to ISOP maximal stimulation. A-B) hADRB1 and hADRB2 were stimulated with ISOP and TYR alone and with both substances simultaneously.
Human β2-adrenergic receptor (ADRB2, NM_000024.5) was subcloned via EcoRI and SpeI with an N-terminal (HA)-tag as well.
Human embryonic kidney cells (HEK293) were cultured in Minimum Essential Medium (MEM) Earle's (Biochrom AG) supplemented with 10% FBS (PAA Laboratories GmbH), 100 U/ml penicillin, and 100 µg/ml streptomycin (Biochrom AG) and 2 mM L-glutamine (Invitrogen) at 37°C with 5% CO2. 48 well plates were coated with Poly-L-Lysine (Biochrom) and HEK293 cells were seeded with 37,500 cells per well. Transient transfection in triplicates with 84 ng DNA/well using metafectene according to manufactures instructions (Biontex, Munich, Germany) was performed 28 hours later. 40 hours after transfection cells were pre-incubated for 5 minutes with stimulation buffer containing of MEM Earle's media and 1 mM 3-isobutyl-1-methylxanthine (IBMX, Sigma). This stimulation buffer was used for all further steps. […] Ligands were all purchased from Sigma, Munich. Controls were incubated with tyramine, β-phenylethylamine, octopamine or isoprenaline for 45 minutes. All reactions were performed at 37°C with 5% CO2 saturated air and stopped by aspirating medium. Cells were lysed at 4°C for 2 h on a shaking platform with cell lysis buffer containing […] HEPES, 0.1% BSA, 0.3% Tween20 and 1 mM IBMX.
(§3) The competitive cyclic adenosine-monophosphate (cAMP) assay via Alphascreen (Perkin Elmer Life Science, Inc., Boston, MA) was carried out according to the manufacturers' protocol. Briefly, 5 µl of each sample were transferred to a 384 well plate. Acceptor beads were diluted in 1X HBSS with 1M HEPES, 0.1% BSA, pH 7.4 and incubated for 30 minutes at room temperature. Then donor beads and 50 µM biotinylated cAMP diluted in the same way were added and incubated for an hour at room temperature. Measurement of the plate was performed using Berthold Microplate Reader (Berthold Technologies GmbH & Co. KG). Results are expressed in fold over mock (unstimulated empty vector).

hTAAR1 = biological target: T2, hTAAR1 (Homo sapiens, UniProt Q96RJ0); test: cAMP accumulation (AlphaScreen) in HEK293 cells transiently transfected with hTAAR1
T2 construct: Full length human TAAR1 (hTAAR1, NM_138327.1) was subcloned; first 20 amino acids of bovine rhodopsin (N); expressed in transfected cells; host or cells: HEK293, transient transfection, vector pcDps
T2 sequence (Q96RJ0 1-339): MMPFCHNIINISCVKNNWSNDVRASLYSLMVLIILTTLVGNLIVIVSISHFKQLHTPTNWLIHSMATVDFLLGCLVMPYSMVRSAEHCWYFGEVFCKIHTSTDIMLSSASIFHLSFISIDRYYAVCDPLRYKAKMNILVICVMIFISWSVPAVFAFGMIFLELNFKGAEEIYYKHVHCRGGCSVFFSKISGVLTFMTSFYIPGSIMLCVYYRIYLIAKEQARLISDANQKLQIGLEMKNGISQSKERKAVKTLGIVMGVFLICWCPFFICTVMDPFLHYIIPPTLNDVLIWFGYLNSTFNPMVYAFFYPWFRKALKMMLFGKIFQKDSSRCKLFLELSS
Method: Figure 2 Functional characterization of hTAAR1 interacting with different trace amines. HEK293 cells transiently transfected with hTAAR1 and were incubated for 45 minutes with […] of PEA, OA and TYR. Basal signaling activity as well as activation of the Gs protein/adenylyl cyclase pathway was determined by AlphaScreen technology. Data represent mean ± SEM of cAMP accumulation after stimulation from 4–5 independent experiments performed in triplicates. […]. Data were analyzed using a paired one-tailed t-test.
Full length human TAAR1 (hTAAR1, NM_138327.1) was subcloned into the eukaryotic expression vector pcDps, N-terminally tagged with an hemagglutinin (5′ […] 3′) epitope via KpnI and SpeI restriction sites. For better cell surface expression hTAAR1 was additionally N-terminally fused with the first 20 amino acids of the bovine Rhodopsin [18], [33]. The human β1-adrenergic receptor (hADRB1, NM_000684.2)-pcDps construct cloned via KpnI/SpeI containing N-terminal (HA)-tag and C-terminal Flag-tag (5′ […] 3′).
Human embryonic kidney cells (HEK293) were cultured in Minimum Essential Medium (MEM) Earle's (Biochrom AG) supplemented with 10% FBS (PAA Laboratories GmbH), 100 U/ml penicillin, and 100 µg/ml streptomycin (Biochrom AG) and 2 mM L-glutamine (Invitrogen) at 37°C with 5% CO2. 48 well plates were coated with Poly-L-Lysine (Biochrom) and HEK293 cells were seeded with 37,500 cells per well. Transient transfection in triplicates with 84 ng DNA/well using metafectene according to manufactures instructions (Biontex, Munich, Germany) was performed 28 hours later. 40 hours after transfection cells were pre-incubated for 5 minutes with stimulation buffer containing of MEM Earle's media and 1 mM 3-isobutyl-1-methylxanthine (IBMX, Sigma). This stimulation buffer was used for all further steps. […]. Ligands were all purchased from Sigma, Munich. Controls were incubated with tyramine, β-phenylethylamine, octopamine or isoprenaline for 45 minutes. All reactions were performed at 37°C with 5% CO2 saturated air and stopped by aspirating medium. Cells were lysed at 4°C for 2 h on a shaking platform with cell lysis buffer containing […] HEPES, 0.1% BSA, 0.3% Tween20 and 1 mM IBMX.
as §3, with “vector). Dose response curves and bar graphs with mean ± SEM as well as statistical analysis (paired one-tailed t-test) were generated using GraphPad Prism Version 4.03.” for “vector).”
Supplementary file pone.0027073.s001.tif: Figure S1 Dose response curves of hTAAR1 agonists. […]. HEK293 transiently expressing hTAAR1 were stimulated with each trace amine in concentrations ranging 0.1 mM to 10 nM. Shown are dose response curves fold over basal means ± SEM from n≥4 independent experiments of measured cAMP in triplicates as described in Material and Methods. […]. Data were analyzed using paired one-tailed t-test tested against basal value of hTAAR1. (TIF) Click here for additional data file.

hADRB1 = biological target: T3, hADRB1 (Homo sapiens, UniProt P08588)
T3 construct: HA tag (N); expressed in transfected cells; host or cells: HEK293 (ATCC-LGC), transient transfection, vector pcDps
Method: as §1, §2
Human embryonic kidney cells (HEK293) were cultured in Minimum Essential Medium (MEM) Earle's (Biochrom AG) supplemented with 10% FBS (PAA Laboratories GmbH), 100 U/ml penicillin, and 100 µg/ml streptomycin (Biochrom AG) and 2 mM L-glutamine (Invitrogen) at 37°C with 5% CO2. […]
The competitive cyclic adenosine-monophosphate (cAMP) assay via Alphascreen (Perkin Elmer Life Science, Inc., Boston, MA) was carried out according to the manufacturers' protocol. […] Measurement of the plate was performed using Berthold Microplate Reader (Berthold Technologies GmbH & Co. KG). […]

[1] = ligand alone, 45 min, HEK293, cAMP, mean ± SEM
[2] = ligand alone, HEK293, cAMP accumulation, mean ± SEM, n≥3, read-out: EC50

T1 sequence (P07550 whole entry): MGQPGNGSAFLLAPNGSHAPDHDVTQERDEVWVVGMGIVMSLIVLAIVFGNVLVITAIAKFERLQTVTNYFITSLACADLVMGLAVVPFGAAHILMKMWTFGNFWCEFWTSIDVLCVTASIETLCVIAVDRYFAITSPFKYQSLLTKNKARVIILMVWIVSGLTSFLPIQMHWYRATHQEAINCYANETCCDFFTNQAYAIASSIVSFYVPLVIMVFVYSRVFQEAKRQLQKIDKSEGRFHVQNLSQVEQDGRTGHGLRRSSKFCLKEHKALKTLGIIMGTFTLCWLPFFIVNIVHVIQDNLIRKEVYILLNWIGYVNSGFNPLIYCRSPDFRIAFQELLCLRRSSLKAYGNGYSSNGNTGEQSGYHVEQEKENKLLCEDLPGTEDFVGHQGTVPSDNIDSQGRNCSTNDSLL
T3 sequence (P08588 whole entry): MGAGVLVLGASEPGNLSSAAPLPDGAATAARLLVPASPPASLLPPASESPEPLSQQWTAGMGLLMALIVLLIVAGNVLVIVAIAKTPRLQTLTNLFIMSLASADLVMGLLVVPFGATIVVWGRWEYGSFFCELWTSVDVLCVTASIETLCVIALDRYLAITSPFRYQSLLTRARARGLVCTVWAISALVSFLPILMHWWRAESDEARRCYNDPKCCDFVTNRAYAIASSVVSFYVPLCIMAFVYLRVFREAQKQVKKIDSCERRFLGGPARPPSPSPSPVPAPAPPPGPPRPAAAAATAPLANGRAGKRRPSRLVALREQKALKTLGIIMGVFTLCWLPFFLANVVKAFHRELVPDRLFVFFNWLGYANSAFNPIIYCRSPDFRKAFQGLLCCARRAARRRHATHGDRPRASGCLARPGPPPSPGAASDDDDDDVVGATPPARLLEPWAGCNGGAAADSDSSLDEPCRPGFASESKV

Row | SMILES | agonistic effect of the ligand alone (hADRB2) | effect on ISOP stimulation (hADRB2) | activation of hTAAR1 (adenylyl cyclase stimulation, cAMP formation) (hTAAR1; HEK293, 45 min) | Emax (hTAAR1; [1]) [nM] | EC50 (hTAAR1; [2]) [µM] | effect on ISOP stimulation (hADRB1) | agonistic effect of the ligand alone (hADRB1; ligand alone 6.7 nM to 6700 nM, 45 min) | EC50 (hTAAR1) [µM] | Emax (hTAAR1) [nM] | activation of hTAAR1 (adenylyl cyclase stimulation, cAMP formation) (hTAAR1)
1 | NCC(O)c1ccc(O)cc1 (centres unmarked) [OA, octopamine] | no agonistic effect | orthosteric antagonist | activate hTAAR1 | 172 ± 42 | 4.17 ± 1.47 | – | – | – | – | –
2 | NCCc1ccccc1 [PEA, β-phenylethylamine] | no agonistic effects | non-competitively antagonized | activate hTAAR1 | 403 ± 54 | 0.26 ± 0.016 | non-competitively antagonized | no agonistic effects | – | – | –
3 | NCCc1ccc(O)cc1 [TYR, tyramine] | no agonistic effect | allosteric antagonist | – | – | – | – | – | 1.54 ± 0.251 | 219 ± 67 | activate hTAAR1
